From PMC3495945, “Org 214007-0: A Novel Non-Steroidal Selective Glucocorticoid Receptor Modulator with Full Anti-Inflammatory Properties and Improved Therapeutic Index” (PLoS ONE, 2012)
Each block holds one compound with its values, some of them ahead of it.

Key:
[1] = system: endometrium in estrogen-primed immature rabbits; experiment: McPhail test (agonistic, progestational activity); type: in vivo, rabbit; conditions: 0-4 scale; 5 days; MPA 0.05 mg/kg/day, Org 214007-0 0.5 mg/kg/day; n=2
Protocol: The McPhail (or anti-McPhail) test was used to evaluate potential progestational (or anti-progestational) activity of Org 214007-0 on the endometrium in estrogen-primed immature rabbits after once-daily administration. The female NZW rabbits were housed in pairs in a light- and temperature-controlled room, fed daily with 40 - 50 g standard pelleted food and with free access to tap-water. Before treatment with compounds rabbits were primed daily in the morning with a subcutaneous dose of 2 μg estradiol benzoate for 8 days. […] Transverse sections were prepared, stained with haematoxylin-eosin and evaluated microscopically. Endometrial development was scored on a 0-4 scale as follows: score 0: no development of glands; score 1: start of development of glands; score 2: clear-cut development of glands with ducts beginning to branch; score 3: about 2/3 of stroma bearing glandual tissue; score 4: more than 2/3 of stroma bearing glandular tissue. A score of 2 or higher in both rabbits was evaluated as a positive resonse.
For both the agonistic and antagonistic test immature female NZW rabbits (n=2 per treatment group) were primed with estrogen. […] One day after the last treatment the uterus was dissected and endometrial development was scored on a 0-4 scale. […]

[2] = molecular target: His-GR-LBD (F602S mutated); experiment: AlphaScreen or HTRF; co-factor peptide recruitment assay (Eu/APC fluorescence); 10 nM His-GR-LBD (F602S) pre-incubated 3 h at 4°C with Org 214007-0 (0.032 nM to 10 μM), then 100 nM TIF2-3 peptide, 8 nM streptavidin-APC and 1.25 nM anti-His-Eu, 20 h at 4°C
LPS-induced TNFα release = experiment: LPS-induced TNFα acute inflammation mouse model; type: in vivo; conditions: RU486 50 mg/kg s.c. 30 minutes before oral compound dosing
Protocol: For both the LPS-induced TNFα as well as the anti-CD3 induced IL-2 model, female Balb/c mice of 8–12 week old were used. Mice were treated orally with 0.2 ml compound or vehicle (water/mannitol (5%) with 5% DMSO/5% chremophore for the LPS model or with 0.5% gelatine for the anti-CD3 model). One hour after oral treatment animals were challenged i.p. with 0.2 ml of either 20 μg/mouse LPS (Sigma, E. coli serotype 055:B5) or 5 µg/mouse hamster anti-CD3 monoclonal (BD Biosciences Pharmingen, art. nr. 553057, clone 145-2C11). Ninety minutes after LPS injection or 3 hours after anti-CD3 challenge, blood samples were collected and serum levels of TNFα or IL-2 were determined via specific ELISAs (BD Biosciences Pharmingen, San Diego, CA, USA). In the experiment that included treatment with RU486 to block GR, mice were dosed subcutaneously with 50 mg/kg RU486 30 minutes before the oral compound dosing. ED50 and % efficacy (maximal percentage inhibition of TNFα or IL-2 release) are determined using a 3 parameter sigmoidal curve calculation. Statistical analysis of the results was performed using an one-way ANOVA (log) test.

[3] = system: endometrium in estrogen-primed immature rabbits; experiment: anti-McPhail test (antagonistic, anti-progestational activity); type: in vivo, rabbit; conditions: 0-4 scale; 7 days with progesterone; RU486 4 mg/kg/day, Org 214007-0 0.5 mg/kg/day oral; n=2
Protocol: For the anti-McPhail test, the estrogen-primed rabbits were subsequently treated for 7 days with inducer progesterone (0.25 mg/kg/day s.c.) in combination with an oral treatment of either placebo, reference RU486 (4 mg/kg/day) or Org 214007-0 (0.5 mg/kg/day). The uterus preparation and evaluation of the endometrium was performed as described above.
For the antagonistic test, after oestrogen priming, rabbits were treated for 7 days with progesterone and placebo, reference RU486 or Org 214007-0. One day after the last treatment the uterus was dissected and endometrial development was scored on a 0-4 scale. […] After treatment with Org 214007-0 no reduction of the endometrial transformation was observed (score 3.31), indicative for no anti-progestagenic activity

Compound: CC(=O)O[C@]1(C(C)=O)CC[C@H]2[C@@H]3C[C@H](C)C4=CC(=O)CC[C@]4(C)[C@H]3CC[C@@]21C [MPA, medroxyprogesterone acetate, reference compound]
- endometrial development score, agonistic test [1]: 2.5

- percentage maximal efficacy of peptide recruitment with Org 214007-0, relative to prednisolone (100%) [2]: 67%
Compound: peptide representing Transcriptional Intermediary Factor 2 - LXXLL motif 3 (TIF2-3)

Compound: CC#C[C@]1(O)CC[C@H]2[C@@H]3CCC4=CC(=O)CCC4=C3[C@@H](c3ccc(N(C)C)cc3)C[C@@]21C [RU486, mifepristone, reference compound]
- effect of RU486 on inhibition of TNFα by Org 214007-0 or prednisolone (LPS-induced TNFα release): fully antagonized
- endometrial development score, antagonistic test [3]: 0.5
